In PubChem BioAssay (NCI):
Values joined by “and” are separate entries in the source; they are usually repeats but may differ in a detail not shown here. Identical values can stand only once.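 Method: 48-hour compound exposure of cells in 96-well plates, five concentrations, linear interpolation of endpoints. GI50 = concentration required for 50% inhibition of growth. TGI is the concentration that stops growth completely.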

What was measured:
Test in all cases: NCI anticancer screen, dose series, 48 h
CAKI-1 renal = test system: CAKI-1 renal
MOLT-4 leukemia = test system: MOLT-4 leukemia
OVCAR-8 ovarian = test system: OVCAR-8 ovarian
NCI/ADR-RES ovarian = test system: NCI/ADR-RES ovarian
NCI-H226 lung = test system: NCI-H226 lung
OVCAR-5 ovarian = test system: OVCAR-5 ovarian
SK-OV-3 ovarian = test system: SK-OV-3 ovarian
IGROV1 ovarian = test system: IGROV1 ovarian
OVCAR-4 ovarian = test system: OVCAR-4 ovarian
COLO 205 colon = test system: COLO 205 colon
SN12C renal = test system: SN12C renal
MDA-N = test system: MDA-N
HCT-15 colon = test system: HCT-15 colon
786-0 renal = test system: 786-0 renal
OVCAR-3 ovarian = test system: OVCAR-3 ovarian
RXF 393 renal = test system: RXF 393 renal
HOP-92 NSCLC = test system: HOP-92 NSCLC
SW-620 colon = test system: SW-620 colon
HT29 colon = test system: HT29 colon
SF-268 CNS = test system: SF-268 CNS
HCC-2998 colon = test system: HCC-2998 colon
LOX IMVI melanoma = test system: LOX IMVI melanoma
SNB-19 CNS = test system: SNB-19 CNS
DU-145 prostate = test system: DU-145 prostate
SK-MEL-28 melanoma = test system: SK-MEL-28 melanoma
MDA-MB-435 = test system: MDA-MB-435
U251 CNS = test system: U251 CNS
SNB-75 CNS = test system: SNB-75 CNS
A498 renal = test system: A498 renal
UACC-257 melanoma = test system: UACC-257 melanoma
T-47D breast = test system: T-47D breast
HCT-116 colon = test system: HCT-116 colon
HOP-62 NSCLC = test system: HOP-62 NSCLC
ACHN renal = test system: ACHN renal
SK-MEL-2 melanoma = test system: SK-MEL-2 melanoma
M14 melanoma = test system: M14 melanoma
MDA-MB-231 breast = test system: MDA-MB-231 breast
BT-549 breast = test system: BT-549 breast
EKVX NSCLC = test system: EKVX NSCLC
SF-295 CNS = test system: SF-295 CNS
A549 NSCLC = test system: A549 NSCLC
SF-539 CNS = test system: SF-539 CNS
SK-MEL-5 melanoma = test system: SK-MEL-5 melanoma
HL-60(TB) leukemia = test system: HL-60(TB) leukemia
TK-10 renal = test system: TK-10 renal
UO-31 renal = test system: UO-31 renal
KM12 colon = test system: KM12 colon
NCI-H460 lung = test system: NCI-H460 lung
NCI-H23 lung = test system: NCI-H23 lung
K-562 leukemia = test system: K-562 leukemia
RPMI-8226 leukemia = test system: RPMI-8226 leukemia
UACC-62 melanoma = test system: UACC-62 melanoma
SR leukemia = test system: SR leukemia
PC-3 prostate = test system: PC-3 prostate
NCI-H522 lung = test system: NCI-H522 lung
MCF7 breast = test system: MCF7 breast
MALME-3M melanoma = test system: MALME-3M melanoma
HS 578T breast = test system: HS 578T breast
CCRF-CEM leukemia = test system: CCRF-CEM leukemia

`CC(=O)/C(=C/n1c(=S)[nH]c2ccccc21)C(=O)Nc1ccccc1C` was tested, and the TGI (CAKI-1 renal) was > 100 µM, the TGI (MOLT-4 leukemia) was > 100 µM and the TGI (OVCAR-8 ovarian) was > 100 µM. For the same compound, the TGI (NCI/ADR-RES ovarian) was > 100 µM, the TGI (NCI-H226 lung) was > 100 µM and the TGI (OVCAR-5 ovarian) was > 100 µM. For the same compound, the TGI (SK-OV-3 ovarian) was > 100 µM, the TGI (IGROV1 ovarian) was > 100 µM and the TGI (OVCAR-4 ovarian) was > 100 µM. The TGI (COLO 205 colon) was > 100 µM, the TGI (SN12C renal) was > 100 µM and the TGI (MDA-N) was > 100 µM. The TGI (HCT-15 colon) was > 100 µM, the TGI (786-0 renal) was > 100 µM and the TGI (OVCAR-3 ovarian) was > 100 µM. For the same compound, the TGI (RXF 393 renal) was > 100 µM, the TGI (HOP-92 NSCLC) was > 100 µM and the TGI (SW-620 colon) was > 100 µM. The TGI (HT29 colon) was > 100 µM, the TGI (SF-268 CNS) was > 100 µM and the TGI (HCC-2998 colon) was > 100 µM. For the same compound, the TGI (LOX IMVI melanoma) was > 100 µM, the TGI (SNB-19 CNS) was > 100 µM and the TGI (DU-145 prostate) was > 100 µM. For the same compound, the TGI (SK-MEL-28 melanoma) was > 100 µM, the TGI (MDA-MB-435) was > 100 µM and the TGI (U251 CNS) was > 100 µM. The TGI (SNB-75 CNS) was > 100 µM, the TGI (A498 renal) was > 100 µM and the TGI (UACC-257 melanoma) was > 100 µM. The TGI (T-47D breast) was > 100 µM, the TGI (HCT-116 colon) was > 100 µM and the TGI (HOP-62 NSCLC) was > 100 µM. The TGI (ACHN renal) was > 100 µM, the TGI (SK-MEL-2 melanoma) was > 100 µM and the TGI (M14 melanoma) was > 100 µM. The TGI (MDA-MB-231 breast) was > 100 µM, the TGI (BT-549 breast) was > 100 µM and the TGI (EKVX NSCLC) was > 100 µM. For the same compound, the TGI (SF-295 CNS) was > 100 µM, the TGI (A549 NSCLC) was > 100 µM and the TGI (SF-539 CNS) was > 100 µM. The TGI (SK-MEL-5 melanoma) was > 100 µM, the TGI (HL-60(TB) leukemia) was > 100 µM and the TGI (TK-10 renal) was > 100 µM. The TGI (UO-31 renal) was > 100 µM, the TGI (KM12 colon) was > 100 µM and the TGI (NCI-H460 lung) was > 100 µM. The TGI (NCI-H23 lung) was > 100 µM.

With `N/N=C1/C2CN3CCN(C2)CC1(c1ccc([N+](=O)[O-])cc1)C3` the TGI (CAKI-1 renal) was > 100 µM, the TGI (MOLT-4 leukemia) was > 100 µM and the TGI (OVCAR-8 ovarian) was > 100 µM. For the same compound, the TGI (NCI/ADR-RES ovarian) was > 100 µM, the TGI (NCI-H226 lung) was > 100 µM and the TGI (OVCAR-5 ovarian) was > 100 µM. For the same compound, the TGI (K-562 leukemia) was > 100 µM, the TGI (IGROV1 ovarian) was > 100 µM and the TGI (OVCAR-4 ovarian) was > 100 µM. For the same compound, the TGI (COLO 205 colon) was > 100 µM, the TGI (SN12C renal) was > 100 µM and the TGI (RPMI-8226 leukemia) was > 100 µM. The TGI (MDA-N) was > 100 µM, the TGI (UACC-62 melanoma) was > 100 µM and the TGI (SR leukemia) was > 100 µM. The TGI (786-0 renal) was > 100 µM, the TGI (OVCAR-3 ovarian) was > 100 µM and the TGI (PC-3 prostate) was > 100 µM. The TGI (RXF 393 renal) was > 100 µM, the TGI (NCI-H522 lung) was > 100 µM and the TGI (SW-620 colon) was > 100 µM. The TGI (HT29 colon) was > 100 µM, the TGI (SF-268 CNS) was > 100 µM and the TGI (LOX IMVI melanoma) was > 100 µM. The TGI (SNB-19 CNS) was > 100 µM, the TGI (DU-145 prostate) was > 100 µM and the TGI (SK-MEL-28 melanoma) was > 100 µM. For the same compound, the TGI (MDA-MB-435) was > 100 µM, the TGI (U251 CNS) was > 100 µM and the TGI (SNB-75 CNS) was > 100 µM. For the same compound, the TGI (MCF7 breast) was > 100 µM, the TGI (A498 renal) was > 100 µM and the TGI (UACC-257 melanoma) was > 100 µM. For the same compound, the TGI (HCT-116 colon) was > 100 µM, the TGI (HOP-62 NSCLC) was > 100 µM and the TGI (MALME-3M melanoma) was > 100 µM. For the same compound, the TGI (ACHN renal) was > 100 µM, the TGI (SK-MEL-2 melanoma) was > 100 µM and the TGI (MDA-MB-231 breast) was > 100 µM. The TGI (BT-549 breast) was > 100 µM, the TGI (EKVX NSCLC) was > 100 µM and the TGI (SF-295 CNS) was > 100 µM. For the same compound, the TGI (SF-539 CNS) was > 100 µM, the TGI (SK-MEL-5 melanoma) was > 100 µM and the TGI (HL-60(TB) leukemia) was > 100 µM. The TGI (TK-10 renal) was > 100 µM, the TGI (UO-31 renal) was > 100 µM and the TGI (KM12 colon) was > 100 µM. The TGI (NCI-H23 lung) was > 100 µM and the TGI (HS 578T breast) was > 100 µM.

`CC(CN(C)C)Nc1c2ccccc2nc2cccc([N+](=O)[O-])c12` (stereo unspecified) showed a TGI (CCRF-CEM leukemia) of 2.87 µM, a TGI (K-562 leukemia) of 0.764 µM and a TGI (IGROV1 ovarian) of 10.1 µM. The TGI (OVCAR-4 ovarian) was 0.61 µM and 5.21 µM, the TGI (MDA-N) was 0.748 µM and the TGI (RXF 393 renal) was 14.9 µM. For the same compound, the GI50 (HOP-92 NSCLC) was 0.226 µM and 0.0258 µM, the TGI (NCI-H522 lung) was 0.111 µM and the GI50 (SW-620 colon) was 0.306 µM. The TGI (SW-620 colon) was 11.8 µM, the TGI (HT29 colon) was 1.02 µM and 0.413 µM and the GI50 (DU-145 prostate) was 0.0747 µM and < 0.0219 µM. The TGI (DU-145 prostate) was 11.9 µM, the GI50 (SNB-75 CNS) was 0.342 µM and 0.0431 µM and the TGI (SNB-75 CNS) was 1.59 µM and 0.268 µM. For the same compound, the TGI (MCF7 breast) was 0.636 µM, the GI50 (HCT-116 colon) was 0.026 µM and < 0.01 µM and the GI50 (HOP-62 NSCLC) was 0.12 µM and < 0.013 µM. It also gave a TGI (MDA-MB-231 breast) of 2.64 µM, a GI50 (BT-549 breast) of 0.54 µM and a TGI (BT-549 breast) of 1.9 µM. For the same compound, the GI50 (SF-295 CNS) was 0.0968 µM and < 0.01 µM, the GI50 (SF-539 CNS) was 0.337 µM and < 0.0378 µM and the TGI (SF-539 CNS) was 1.31 µM. For the same compound, the GI50 (SK-MEL-5 melanoma) was 0.0715 µM and < 0.01 µM, the GI50 (HL-60(TB) leukemia) was 0.0182 µM and the GI50 (UO-31 renal) was 0.188 µM and < 0.0237 µM. For the same compound, the TGI (UO-31 renal) was 0.457 µM and 0.887 µM, the GI50 (NCI-H460 lung) was 0.0248 µM and < 0.0111 µM and the TGI (NCI-H460 lung) was 0.206 µM and 0.711 µM. The GI50 (HS 578T breast) was < 0.01 µM and the TGI (HS 578T breast) was < 0.01 µM.
